Reference: PubChem BioAssay (NCI)
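Where inhibition never reached the appropriate level, the endpoint shown equals the highest concentration tested. Otherwise, values were interpolated linearly from a five-concentration, 48-hour dose response in 96-well plates. GI50 = concentration required for 50% inhibition of growth. TGI denotes the concentration required for complete inhibition of growth.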

Assays:
Test in all cases: growth of human tumour cells (NCI), 48 h
SR leukemia = system: SR leukemia
HCT-15 colon = system: HCT-15 colon
TK-10 renal = system: TK-10 renal
NCI-H226 lung = system: NCI-H226 lung
OVCAR-3 ovarian = system: OVCAR-3 ovarian
K-562 leukemia = system: K-562 leukemia
SW-620 colon = system: SW-620 colon
MDA-MB-435 = system: MDA-MB-435
OVCAR-8 ovarian = system: OVCAR-8 ovarian
NCI-H522 lung = system: NCI-H522 lung
RXF 393 renal = system: RXF 393 renal
HS 578T breast = system: HS 578T breast
KM12 colon = system: KM12 colon
ACHN renal = system: ACHN renal
U251 CNS = system: U251 CNS
SF-268 CNS = system: SF-268 CNS
OVCAR-4 ovarian = system: OVCAR-4 ovarian
UACC-62 melanoma = system: UACC-62 melanoma
DU-145 prostate = system: DU-145 prostate
786-0 renal = system: 786-0 renal
A549 NSCLC = system: A549 NSCLC
SF-539 CNS = system: SF-539 CNS
OVCAR-5 ovarian = system: OVCAR-5 ovarian
NCI-H460 lung = system: NCI-H460 lung
CCRF-CEM leukemia = system: CCRF-CEM leukemia
HCC-2998 colon = system: HCC-2998 colon
LOX IMVI melanoma = system: LOX IMVI melanoma
SK-MEL-28 melanoma = system: SK-MEL-28 melanoma
RPMI-8226 leukemia = system: RPMI-8226 leukemia
SN12C renal = system: SN12C renal
EKVX NSCLC = system: EKVX NSCLC
IGROV1 ovarian = system: IGROV1 ovarian
COLO 205 colon = system: COLO 205 colon
UACC-257 melanoma = system: UACC-257 melanoma
BT-549 breast = system: BT-549 breast
SK-OV-3 ovarian = system: SK-OV-3 ovarian
HOP-92 NSCLC = system: HOP-92 NSCLC
MOLT-4 leukemia = system: MOLT-4 leukemia
MDA-MB-231 breast = system: MDA-MB-231 breast
UO-31 renal = system: UO-31 renal
MALME-3M melanoma = system: MALME-3M melanoma
A498 renal = system: A498 renal
SF-295 CNS = system: SF-295 CNS
NCI-H23 lung = system: NCI-H23 lung
NCI/ADR-RES ovarian = system: NCI/ADR-RES ovarian
M14 melanoma = system: M14 melanoma
T-47D breast = system: T-47D breast
SNB-75 CNS = system: SNB-75 CNS
SK-MEL-5 melanoma = system: SK-MEL-5 melanoma
SNB-19 CNS = system: SNB-19 CNS
HL-60(TB) leukemia = system: HL-60(TB) leukemia
PC-3 prostate = system: PC-3 prostate
HT29 colon = system: HT29 colon
SK-MEL-2 melanoma = system: SK-MEL-2 melanoma
HOP-62 NSCLC = system: HOP-62 NSCLC

With `C=C1C(=O)O[C@H]2[C@H]1CC/C(COC(=O)CCCCCCC(=O)OC/C1=C/CC[C@@]3(C)O[C@H]3[C@H]3OC(=O)C(=C)[C@@H]3CC1)=C\CC[C@@]1(C)O[C@@H]21` the GI50 (SR leukemia) was 1.51 µM, the TGI (SR leukemia) was 9.88 µM and the GI50 (HCT-15 colon) was 2.63 µM. For the same molecule, the TGI (HCT-15 colon) was 10.1 µM, the GI50 (TK-10 renal) was 3.46 µM and the TGI (TK-10 renal) was 9.42 µM. For the same molecule, the GI50 (NCI-H226 lung) was 2.39 µM, the TGI (NCI-H226 lung) was 6.65 µM and the GI50 (OVCAR-3 ovarian) was 2.55 µM. The TGI (OVCAR-3 ovarian) was 10 µM, the GI50 (K-562 leukemia) was 2.73 µM and the TGI (K-562 leukemia) was 11.1 µM. It also gave a GI50 (SW-620 colon) of 2.18 µM, a TGI (SW-620 colon) of 6.24 µM and a GI50 (MDA-MB-435) of 3.33 µM. For the same molecule, the TGI (MDA-MB-435) was 14.2 µM, the GI50 (OVCAR-8 ovarian) was 3 µM and the TGI (OVCAR-8 ovarian) was 10.3 µM. The GI50 (NCI-H522 lung) was 1.92 µM, the TGI (NCI-H522 lung) was 3.45 µM and the GI50 (RXF 393 renal) was 1.61 µM. It also gave a TGI (RXF 393 renal) of 3.33 µM, a GI50 (HS 578T breast) of 2.3 µM and a TGI (HS 578T breast) of 8.7 µM. For the same molecule, the GI50 (KM12 colon) was 3.84 µM, the TGI (KM12 colon) was 16.9 µM and the GI50 (ACHN renal) was 2.56 µM. It also gave a TGI (ACHN renal) of 8.98 µM, a GI50 (U251 CNS) of 2.96 µM and a TGI (U251 CNS) of 10.3 µM. The GI50 (SF-268 CNS) was 3.51 µM, the TGI (SF-268 CNS) was 14.3 µM and the GI50 (OVCAR-4 ovarian) was 3.23 µM. It also gave a TGI (OVCAR-4 ovarian) of 13.8 µM, a GI50 (UACC-62 melanoma) of 5.47 µM and a TGI (UACC-62 melanoma) of 20.2 µM. The GI50 (DU-145 prostate) was 5.59 µM, the TGI (DU-145 prostate) was 17.7 µM and the GI50 (786-0 renal) was 1.84 µM. It also gave a TGI (786-0 renal) of 3.87 µM, a GI50 (A549 NSCLC) of 16.9 µM and a TGI (A549 NSCLC) of 45 µM. For the same molecule, the GI50 (SF-539 CNS) was 2.52 µM, the TGI (SF-539 CNS) was 7 µM and the GI50 (OVCAR-5 ovarian) was 2.54 µM. It also gave a TGI (OVCAR-5 ovarian) of 7.5 µM, a GI50 (NCI-H460 lung) of 5.36 µM and a TGI (NCI-H460 lung) of 23.9 µM. It also gave a GI50 (CCRF-CEM leukemia) of 1.11 µM, a TGI (CCRF-CEM leukemia) of 5.89 µM and a GI50 (HCC-2998 colon) of 3.76 µM. For the same molecule, the TGI (HCC-2998 colon) was 12.5 µM, the GI50 (LOX IMVI melanoma) was 1.58 µM and the TGI (LOX IMVI melanoma) was 3.12 µM. For the same molecule, the GI50 (SK-MEL-28 melanoma) was 2.95 µM, the TGI (SK-MEL-28 melanoma) was 10.2 µM and the GI50 (RPMI-8226 leukemia) was 2.27 µM. For the same molecule, the TGI (RPMI-8226 leukemia) was 6.42 µM, the GI50 (SN12C renal) was 2.9 µM and the TGI (SN12C renal) was 11.2 µM. It also gave a GI50 (EKVX NSCLC) of 3.66 µM, a TGI (EKVX NSCLC) of 16.1 µM and a GI50 (IGROV1 ovarian) of 2.91 µM. For the same molecule, the TGI (IGROV1 ovarian) was 10.5 µM, the GI50 (COLO 205 colon) was 2 µM and the TGI (COLO 205 colon) was 4.26 µM. The GI50 (UACC-257 melanoma) was 2.1 µM, the TGI (UACC-257 melanoma) was 6.22 µM and the GI50 (BT-549 breast) was 1.81 µM. For the same molecule, the TGI (BT-549 breast) was 4.33 µM, the GI50 (SK-OV-3 ovarian) was 35.9 µM and the TGI (SK-OV-3 ovarian) was > 100 µM. For the same molecule, the GI50 (HOP-92 NSCLC) was 2.24 µM, the TGI (HOP-92 NSCLC) was 8.14 µM and the GI50 (MOLT-4 leukemia) was 2.4 µM. For the same molecule, the TGI (MOLT-4 leukemia) was 9.93 µM, the GI50 (MDA-MB-231 breast) was 2.28 µM and the TGI (MDA-MB-231 breast) was 5.94 µM. The GI50 (UO-31 renal) was 1.58 µM, the TGI (UO-31 renal) was 4.37 µM and the GI50 (MALME-3M melanoma) was 2.55 µM. The TGI (MALME-3M melanoma) was 7.05 µM, the GI50 (A498 renal) was 15.3 µM and the TGI (A498 renal) was 30.5 µM. For the same molecule, the GI50 (SF-295 CNS) was 10.8 µM, the TGI (SF-295 CNS) was 24.7 µM and the GI50 (NCI-H23 lung) was 2.94 µM. It also gave a TGI (NCI-H23 lung) of 12.6 µM, a GI50 (NCI/ADR-RES ovarian) of 4.26 µM and a TGI (NCI/ADR-RES ovarian) of 29.6 µM. It also gave a GI50 (M14 melanoma) of 2.48 µM, a TGI (M14 melanoma) of 8.55 µM and a GI50 (T-47D breast) of 3.48 µM. The TGI (T-47D breast) was 10.8 µM, the GI50 (SNB-75 CNS) was 12.9 µM and the TGI (SNB-75 CNS) was 36.6 µM. For the same molecule, the GI50 (SK-MEL-5 melanoma) was 4.83 µM, the TGI (SK-MEL-5 melanoma) was 16.6 µM and the GI50 (SNB-19 CNS) was 7.17 µM. For the same molecule, the TGI (SNB-19 CNS) was 24.1 µM, the GI50 (HL-60(TB) leukemia) was 1.5 µM and the TGI (HL-60(TB) leukemia) was 4.23 µM. For the same molecule, the GI50 (PC-3 prostate) was 2.74 µM, the TGI (PC-3 prostate) was 7.98 µM and the GI50 (HT29 colon) was 2.41 µM. For the same molecule, the TGI (HT29 colon) was 4.9 µM, the GI50 (SK-MEL-2 melanoma) was 12.6 µM and the TGI (SK-MEL-2 melanoma) was 29.7 µM. For the same molecule, the GI50 (HOP-62 NSCLC) was 6.69 µM and the TGI (HOP-62 NSCLC) was 22.9 µM.
